Experimental findings from patent US20240294545A1 (CSPC Zhongqi Pharmaceutical Technology (Shijiazhuang) Co., …, priority 2020, published 2024) are described below.

Marks after values point to notes of the source that are not given here. Bounds are passed on as bounds.

The target of assay [1] is PI3Kβ (p110β). Nature of the assay: ADP-Glo kinase assay for PI3Kβ. The class given is biochemical. The following applies: read-out: IC50 of kinase inhibitory activity, PI3K β. As for the experimental part:
(§1) 1.3 Determination of the Inhibitory Activities of Compounds on PI3Kα, PI3Kβ, PI3Kγ, and PI3Kδ Kinase: ADP-Glo Kinase Assay
(§2) Experimental procedures • (1) Preparation of 1× kinase buffer • 50 mM HEPES, pH 7.5 • 3 mM MgCl2 • 1 mM EGTA • 100 mM NaCl • 0.03% CHAPS • 2 mM DTT • (2) Preparation of test compound • 1) Dissolution and dilution of compound: • The compound was dissolved in DMSO to yield a stock solution. Before the assay, the stock solution of the compound was diluted with DMSO in a 384-well plate to yield a 100× solution at a concentration that is 100 times a target concentration for assay. • 50 μL of DMSO was added, respectively, into two blank wells in the same 384 well plate, corresponding to the total reaction control without compound and the blank control without enzyme. • 2) Preparation of test plate: 50 nL of the compound solution in each of the above wells was taken to a test plate. • (3) Kinase reaction • 1) PI3Kα, PI3Kβ, PI3Kγ, and PI3Kδ kinases were dissolved, respectively, in 1× kinase buffer to yield a 2× enzyme solution at a concentration that is twice the final concentration. 2.5 µL of the 2× enzyme solution was taken to each well of the test plate. The blank control without enzyme was added with 2.5 μL of the 1× kinase buffer instead of the enzyme solution. […]

In assay [2] the target is ATM (Homo sapiens (Human), UniProt Q13315). The experiment in a line: Caliper mobility shift assay for ATM. The class given is biochemical. The following applies: read-out: IC50 of inhibitory activity on ATM kinase. As for the experimental part:
1.2 Determination of the Inhibitory Activities of Compounds on ATM: Caliper Mobility Shift Assay for ATM
To a 96-well plate, 98 μL of DMSO and 2 μL of the 10 mM stock solution were added and mixed evenly so that the concentration of the solution was 200 μM.
Based on the inhibitory rates of the compound at different concentrations, IC50 was calculated according to the formula: Y=Bottom+(Top−Bottom)/(1+(IC50/X)^HillSlope).

Assay [3] deals with ATR (Homo sapiens (Human), UniProt Q13535). The experiment in a line: Caliper mobility shift assay for ATR. The following applies: read-out: IC50 of kinase inhibitory activity, ATR. The class given is biochemical. As for the experimental part:
1.6 Determination of the Inhibitory Activity of Compounds on ATR: Caliper Mobility Shift Assay for ATR
• (1) Preparation of 1× kinase buffer and reaction termination solution • 1) 1× kinase buffer • 50 mM HEPES, pH 7.5 • 0.0015% Brij-35 • […] • 2) Reaction termination solution • 100 mM HEPES, pH 7.5 • 0.015% Brij-35 • 0.2% Coating Reagent #3 • 50 mM EDTA • (2) Preparation of test compound • 1) The compound was dissolved in DMSO to yield a stock solution. Before the assay, to a 96-well plate, 30 μL of a 10 mM stock solution was taken and added with 60 μL of DMSO. […]

The target in assay [4] is mTOR (Homo sapiens (Human), UniProt P42345). The experiment in a line: LanceUltra kinase assay for mTOR. The class given is biochemical. The following applies: read-out: IC50 of kinase inhibitory activity, mTOR.
The target of assay [5] is PI3Kδ (p110δ/p85δ) (Homo sapiens (Human), UniProt O00329). Nature of the assay: ADP-Glo kinase assay for PI3Kδ. Format: biochemical. The following applies: read-out: IC50 of kinase inhibitory activity, PI3K δ. As for the experimental part: as §1, §2
(ADP-Glo first removes unused ATP, then detects ADP through luciferase.)

For assay [6], the target named is DNA-PK (Homo sapiens (Human), UniProt P78527). Nature of the assay: ADP-Glo kinase assay for DNA-PK. Format: biochemical. The following applies: read-out: IC50 of kinase inhibitory activity, DNA-PK. As for the experimental part:
1.4 Determination of the Inhibitory Activities of Compounds on DNA-PK Kinase: ADP-Glo Kinase Assay
• (1) Preparation of 1× kinase buffer • 40 mM Tris, pH 7.5 • 0.0055% Brij-35 • 20 mM MgCl2 • 0.05 mM DTT • (2) Preparation of test compound • 1) The compound was dissolved in DMSO to yield a stock solution. Before the assay, the stock solution of the compound was diluted with DMSO to yield a 100× solution at a concentration that is 100 times a target concentration for assay. If the target concentration was […], the stock solution should be diluted to yield a 1 mM solution at this step. • 2) 100 μL of DMSO was added, respectively, into two blank wells in the same 96 well plate, corresponding to the total reaction control without compound and the blank control without enzyme. • 3) Preparation of test plate: 50 nL of the compound solution in each of the above wells was taken to a 384-well plate as a test plate. • (3) Kinase reaction • 1) DNA-PK kinase was dissolved in 1× kinase buffer to yield a 2× enzyme solution that is twice the final concentration. 2.5 μL of the 2× enzyme solution was taken to each well of the test plate. The blank control without enzyme was added with 2.5 μL of the 1× kinase buffer instead of the enzyme solution. […]

For assay [7], the target named is PI3Kα (p110α/p85α) (Homo sapiens (Human), UniProt P42336). Nature of the assay: ADP-Glo kinase assay for PI3Kα. Format: biochemical. The following applies: read-out: IC50 of kinase inhibitory activity, PI3K α. As for the experimental part:
as §1, §2

Assay [8] addresses PI3Kγ (pp110gamma) (Homo sapiens (Human), UniProt P48736). The experiment in a line: ADP-Glo kinase assay for PI3Kγ. Format: biochemical. The following applies: read-out: IC50 of kinase inhibitory activity, PI3K γ. As for the experimental part: as §1, §2
In assay [9] the test system is intracranial murine glioma GL-261-Luc. The experiment in a line: Intracranial murine glioma GL-261-Luc model, combined with radiotherapy. Format: in vivo, C57BL/6 mice. As for the experimental part: 8 Efficacy Test of the Compounds of the Present Disclosure Combined with Radiotherapy in the Intracranial Murine Glioma GL-261-Luc Model
8.1 Experimental Animals: C57BL/6 Mice, SPF, Female, 19 to 22 g.
GL-261-Luc tumor cells, DMEM medium:fetal bovine serum=90%:10%, accompanied by adding […] L-Glu, 37° C., 5% CO2.
Female C57BL/6 mice were anesthetized with Shutai 50 (60 mg/mL) and thiazine (1.5 mg/mL). Buprenorphine (0.1 mg/kg) was injected subcutaneously 30 min before operation and 6 h after operation to relieve pain. The operation area was disinfected with 70% ethanol solution. A sagittal incision was made on the parietal-occipital bone of anesthetized mice with a sterile scalpel, after cleaning the exposed skull surface with 3% hydrogen peroxide solution, tumor cells were injected. After injection, the skull was cleaned with 3% hydrogen peroxide solution, dried with a sterile dry cotton swab, and the incision was sutured. The state of mice was examined continuously to ensure that mice fully recovered from anesthesia.
The inoculated mice were weighed and intraperitoneally injected with […] (150 mg/kg). After 10 min injection, the animals were anesthetized with a mixture of oxygen and isoflurane. When the animal was completely anesthetized, it was moved into the imaging room for bioluminescence detection. The bioluminescence signal of the whole animal was measured and recorded for the image.
Bioluminescence detection was performed on the second day after operation, and the tumor-bearing mice were randomly divided into groups according to the intensity of bioluminescence. The specific groups were as follows. The administration route was intragastric administration and then JR 1 h after administration.
After grouping, bioluminescence detection was performed 1 to 2 times a week, according to the bioluminescence data, tumor growth inhibitory rate was calculated as follows: TGI (%)=[1−(Ti−T0)/(Vi−V0)]×100, wherein Ti represents the mean bioluminescence data of a given treatment group on a certain day; T0 represents the mean bioluminescence data of this treatment group at the beginning of administration; Vi represents the mean bioluminescence data of the vehicle control group on a certain day (the same day as that in Ti); V0 represents the mean bioluminescence data of the vehicle control group at the beginning of administration.

For assay [10], the system named is subcutaneous xenograft tumor of human glioblastoma LN-18. Nature of the assay: LN-18 subcutaneous xenograft, combined with radiotherapy. Format: in vivo, NOG mice. The following applies: compound 20 mg/kg intragastric qd × 5 + IR 1 Gy, day 17. Put shortly: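 Female NOG mice (18–22 g) bearing subcutaneous LN-18 tumours (1.5*10^7 cells, right costal region) were grouped at 100–150 mm^3; radiotherapy followed compound dosing by 1 h. Caliper volumes twice weekly (0.5×long×short^2); TGI % derived from treated vs control mean volume changes from day 0.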

The subject of assay [11] is subcutaneous xenograft tumor of human non-small cell lung cancer cell line NCI-H441. Nature of the assay: NCI-H441 subcutaneous xenograft, combined with irinotecan liposome injection. Format: in vivo, NU/NU mice. As for the experimental part: 6 Efficacy Test of the Compounds of the Present Disclosure Combined with Irinotecan Liposome Injection on Inhibiting the Growth of Subcutaneous Xenograft Tumor of Human Non-Small Cell Lung Cancer Cell Line NCI-H441
6.1 Experimental Animals: NU/NU Mice, SPF, Female, 20 to 30 g.
Irinotecan liposome injection (HE072), 43 mg:10 mL, milky white liquid, batch No. B37191202, provided by Preparation Research Institute 2 from CSPC Zhongqi Pharmaceutical Technology (Shijiazhuang) Co., Ltd., diluted to an appropriate concentration with 5% glucose injection while testing.
NCI-H441 cells, provided by Nanjing Kebai Biotechnology Co., Ltd.; 1640 culture medium (gibco Company):fetal bovine serum (Lanzhou Bailing)=90%:10%, 37° C., 5% CO2.
NU/NU nude mice were subcutaneously inoculated with NCI-H441 human non-small cell lung cancer cells. When the mean tumor volume reached 170 to 172 mm^3 (15 days after inoculation), the animals were evenly divided into groups according to the tumor volume (d0), with 6 mice in each group. 2.5 mg/kg of HE072 was administered intraperitoneally once a week for 2 times. Vehicle control, 25 mg/kg of A-193, 25 mg/kg of A-182, and 25 mg/kg of AZD1390 were administered intragastrically once a day, from Monday to Thursday every week except Friday to Sunday, for 2 weeks (8 times). The tumor volume was measured twice a week, the body weight of mouse was weighed every day, and the data were recorded. The tumor volume (TV) was calculated according to the formula: TV=½×a×b2, wherein a and b represent the long and short diameters of tumor, respectively. Tumor growth inhibitory rate TGI (%)=[1−(Ti−T0)/(Vi−V0)]×100, wherein Ti represents the mean tumor volume of a given treatment group on a certain day; TO represents the mean tumor volume of this treatment group at the beginning of administration; Vi represents the mean tumor volume of the vehicle control group on a certain day (the same day as that in Ti); V0 represents the mean tumor volume of the vehicle control group at the beginning of administration. At the end of the test (d17), the animals were sacrificed, the tumors were stripped and weighed, and the tumor weight inhibitory rates were calculated.

The mark [12] stands for this setting: compound 25 mg/kg intragastric + irinotecan liposome 2.5 mg/kg ip, day 17.
Where [13] appears, read: compound 25 mg/kg intragastric + irinotecan liposome 2.5 mg/kg ip, end of test d17.

What is called IC50 is the concentration that gives 50% inhibition.

Sequence of ATM (Q13315 whole entry): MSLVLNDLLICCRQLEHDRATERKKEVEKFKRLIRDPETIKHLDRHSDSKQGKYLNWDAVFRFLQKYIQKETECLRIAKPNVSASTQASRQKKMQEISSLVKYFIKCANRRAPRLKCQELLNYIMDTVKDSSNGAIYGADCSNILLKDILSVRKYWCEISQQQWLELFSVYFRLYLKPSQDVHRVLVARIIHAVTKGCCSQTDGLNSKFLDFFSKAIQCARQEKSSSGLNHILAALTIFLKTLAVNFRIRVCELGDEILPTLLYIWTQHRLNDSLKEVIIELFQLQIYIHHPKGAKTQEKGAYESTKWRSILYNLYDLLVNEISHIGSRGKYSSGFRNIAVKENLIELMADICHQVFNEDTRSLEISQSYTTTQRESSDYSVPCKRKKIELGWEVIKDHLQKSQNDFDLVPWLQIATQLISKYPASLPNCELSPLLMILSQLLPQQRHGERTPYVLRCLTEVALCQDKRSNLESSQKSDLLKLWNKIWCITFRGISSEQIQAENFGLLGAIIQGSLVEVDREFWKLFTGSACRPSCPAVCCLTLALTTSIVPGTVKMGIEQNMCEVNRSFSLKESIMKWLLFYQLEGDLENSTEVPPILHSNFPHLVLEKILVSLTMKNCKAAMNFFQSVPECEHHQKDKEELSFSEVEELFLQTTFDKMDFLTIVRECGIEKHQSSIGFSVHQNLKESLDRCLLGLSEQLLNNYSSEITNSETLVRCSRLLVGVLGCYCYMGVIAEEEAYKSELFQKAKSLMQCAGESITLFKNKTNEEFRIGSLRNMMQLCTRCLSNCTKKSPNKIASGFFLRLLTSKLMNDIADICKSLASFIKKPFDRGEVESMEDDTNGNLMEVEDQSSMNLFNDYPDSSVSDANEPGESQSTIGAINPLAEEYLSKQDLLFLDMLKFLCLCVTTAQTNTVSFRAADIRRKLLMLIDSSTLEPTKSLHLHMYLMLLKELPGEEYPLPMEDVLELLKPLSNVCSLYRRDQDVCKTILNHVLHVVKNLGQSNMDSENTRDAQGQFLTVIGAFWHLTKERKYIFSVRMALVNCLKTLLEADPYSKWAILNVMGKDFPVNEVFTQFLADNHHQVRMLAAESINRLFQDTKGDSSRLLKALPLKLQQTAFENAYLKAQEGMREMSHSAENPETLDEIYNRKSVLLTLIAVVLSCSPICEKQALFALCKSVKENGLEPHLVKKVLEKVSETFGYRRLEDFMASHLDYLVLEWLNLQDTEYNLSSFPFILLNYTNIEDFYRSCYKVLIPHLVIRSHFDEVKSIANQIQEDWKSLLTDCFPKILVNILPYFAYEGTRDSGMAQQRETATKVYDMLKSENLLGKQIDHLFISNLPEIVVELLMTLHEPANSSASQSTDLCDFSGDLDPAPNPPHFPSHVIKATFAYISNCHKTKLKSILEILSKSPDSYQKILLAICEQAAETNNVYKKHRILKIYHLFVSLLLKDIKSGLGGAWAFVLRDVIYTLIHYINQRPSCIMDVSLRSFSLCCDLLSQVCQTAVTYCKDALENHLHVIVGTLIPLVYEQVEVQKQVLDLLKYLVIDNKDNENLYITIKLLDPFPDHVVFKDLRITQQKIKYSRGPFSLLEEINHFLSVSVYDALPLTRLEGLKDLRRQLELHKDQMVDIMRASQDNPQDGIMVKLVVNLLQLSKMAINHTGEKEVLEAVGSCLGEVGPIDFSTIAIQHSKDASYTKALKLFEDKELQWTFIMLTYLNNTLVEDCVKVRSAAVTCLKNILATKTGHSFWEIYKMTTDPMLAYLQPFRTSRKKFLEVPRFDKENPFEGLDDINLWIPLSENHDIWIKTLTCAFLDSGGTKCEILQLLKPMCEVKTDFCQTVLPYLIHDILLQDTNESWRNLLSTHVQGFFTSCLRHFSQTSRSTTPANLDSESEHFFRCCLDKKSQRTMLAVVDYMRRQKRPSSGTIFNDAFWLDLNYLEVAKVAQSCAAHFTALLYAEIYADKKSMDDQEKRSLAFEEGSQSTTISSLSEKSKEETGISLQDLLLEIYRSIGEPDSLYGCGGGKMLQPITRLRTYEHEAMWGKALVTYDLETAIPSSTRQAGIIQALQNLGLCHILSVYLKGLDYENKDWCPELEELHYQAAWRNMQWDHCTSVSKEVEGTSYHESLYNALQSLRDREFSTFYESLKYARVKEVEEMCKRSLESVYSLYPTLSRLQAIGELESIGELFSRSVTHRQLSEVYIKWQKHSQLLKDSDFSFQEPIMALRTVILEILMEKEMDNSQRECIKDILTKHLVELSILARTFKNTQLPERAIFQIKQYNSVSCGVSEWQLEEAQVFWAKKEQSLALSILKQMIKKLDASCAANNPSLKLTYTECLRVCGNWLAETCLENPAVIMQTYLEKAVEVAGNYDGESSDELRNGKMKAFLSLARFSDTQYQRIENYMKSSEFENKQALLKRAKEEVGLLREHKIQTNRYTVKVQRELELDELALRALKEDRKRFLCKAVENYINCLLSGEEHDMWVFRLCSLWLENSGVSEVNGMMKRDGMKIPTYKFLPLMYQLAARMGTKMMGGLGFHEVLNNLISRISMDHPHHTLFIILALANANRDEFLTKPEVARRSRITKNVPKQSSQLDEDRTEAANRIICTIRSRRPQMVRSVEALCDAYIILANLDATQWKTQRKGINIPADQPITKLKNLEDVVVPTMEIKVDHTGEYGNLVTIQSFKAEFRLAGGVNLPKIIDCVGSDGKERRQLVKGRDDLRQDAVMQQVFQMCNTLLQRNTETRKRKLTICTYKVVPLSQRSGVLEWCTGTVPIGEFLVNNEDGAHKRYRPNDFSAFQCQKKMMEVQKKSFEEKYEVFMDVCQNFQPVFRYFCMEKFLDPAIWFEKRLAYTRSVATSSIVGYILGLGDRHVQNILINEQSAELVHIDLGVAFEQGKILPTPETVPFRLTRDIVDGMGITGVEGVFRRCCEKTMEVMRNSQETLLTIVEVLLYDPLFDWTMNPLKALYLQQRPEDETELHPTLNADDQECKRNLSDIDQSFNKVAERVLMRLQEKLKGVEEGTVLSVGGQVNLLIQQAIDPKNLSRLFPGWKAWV
Sequence of PI3Kγ (pp110gamma) (P48736 whole entry): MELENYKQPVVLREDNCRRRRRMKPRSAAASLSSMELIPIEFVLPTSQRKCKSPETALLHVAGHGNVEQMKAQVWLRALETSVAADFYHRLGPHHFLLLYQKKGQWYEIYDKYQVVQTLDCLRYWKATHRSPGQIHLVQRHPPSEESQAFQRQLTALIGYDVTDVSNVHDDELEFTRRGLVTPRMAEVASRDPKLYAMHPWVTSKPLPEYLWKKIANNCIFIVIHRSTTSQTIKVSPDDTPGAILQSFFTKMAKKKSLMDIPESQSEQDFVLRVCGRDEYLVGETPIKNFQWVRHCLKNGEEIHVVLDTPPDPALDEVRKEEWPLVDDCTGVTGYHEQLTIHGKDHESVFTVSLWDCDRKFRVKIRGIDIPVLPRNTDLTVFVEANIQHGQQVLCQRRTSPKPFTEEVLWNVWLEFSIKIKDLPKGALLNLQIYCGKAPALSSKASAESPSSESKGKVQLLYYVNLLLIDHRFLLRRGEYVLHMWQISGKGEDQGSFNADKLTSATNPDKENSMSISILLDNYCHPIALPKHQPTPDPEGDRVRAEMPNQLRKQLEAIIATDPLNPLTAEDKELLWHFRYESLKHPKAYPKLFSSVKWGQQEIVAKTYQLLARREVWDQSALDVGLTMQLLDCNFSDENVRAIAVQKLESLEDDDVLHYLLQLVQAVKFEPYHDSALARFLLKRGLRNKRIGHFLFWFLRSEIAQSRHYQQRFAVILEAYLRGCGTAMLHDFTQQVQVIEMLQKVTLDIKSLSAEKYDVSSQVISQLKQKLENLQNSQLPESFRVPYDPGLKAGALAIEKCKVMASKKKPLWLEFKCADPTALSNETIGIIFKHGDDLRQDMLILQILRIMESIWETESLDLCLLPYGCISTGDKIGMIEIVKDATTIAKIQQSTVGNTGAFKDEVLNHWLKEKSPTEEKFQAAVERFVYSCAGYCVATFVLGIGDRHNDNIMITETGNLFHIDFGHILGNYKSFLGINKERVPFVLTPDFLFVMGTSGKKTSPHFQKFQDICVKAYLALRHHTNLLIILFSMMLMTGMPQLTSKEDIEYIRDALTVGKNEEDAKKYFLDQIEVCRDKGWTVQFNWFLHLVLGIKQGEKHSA

Turning to `CC[C@@H]1COc2c(-c3ccc(OCCCN4CCCCC4)nc3)c(F)cc3ncc4c(c23)n1c(=O)n4C` [Example A-22, (R)-10-ethyl-6-fluoro-2-methyl-7-(6-(3-(piperidin-1-yl)propoxy)pyridin-3-yl)-9,10-dihydro-8-oxa-2,4,10a-triazanaphtho[2,1,8-cde]azulen-1(2H)-one], the IC50 in assay [1] was more than 10000 nM; in assay [2], 0.52 nM; in assay [3] it was more than 10000 nM; in [4] it was 1280 nM; in assay [5] it was more than 10000 nM; in [6] it was 852 nM. Moreover, the IC50 in [7] was 6280 nM; in assay [8], more than 10000 nM.
`C[C@@H]1COc2c(-c3ccc(OCCCN4CCCCC4)nc3)ccc3ncc4c(c23)n1c(=O)n4C` [Example A-182, (R)-2,10-dimethyl-7-(6-(3-(piperidin-1-yl)propoxy)pyridin-3-yl)-9,10-dihydro-8-oxa-2,4,10a-triazanaphtho[2,1,8-cde]azulen-1(2H)-one]: the IC50 in assay [2] was found to be 0.46 nM. Further, the “anti-tumor activity, in words” value in [9] (combined with radiotherapy, compared with AZD1390) is given as “equivalent to that of AZD1390”. Further, in [9] (compound 10 mg/kg intragastric qd × 5 + IR 2 Gy, day 17), the “D17 BLI” value is 5.24*** LOG10. The “D 17 TGI” value is 110.08% in [9] (compound 10 mg/kg intragastric qd × 5 + IR 2 Gy, day 17, from bioluminescence); 85.5% in assay [10]; 75.1% in assay [11] (setting [12]). The “D 17 TV (MEAN ± SD)” value is listed as 271 ± 107***^# mm^3 in assay [10] and 278.5 ± 94.1***^## mm^3 in assay [11] (setting [12]). Also, the “inhibitory effect on tumor volume and tumor weight, in words” value in assay [11] (combined with irinotecan liposome injection, compared with AZD1390) is reported as “higher than those of AZD1390”. Moreover, the Tumor weight in [11] (setting [13]) is on record as 0.26 ± 0.07 g. Also, in assay [11] (setting [13]), the “Tumor weight inhibitory rate” value came out at 56.1%.
